Data as given in paper PMC11813896, “Bis(7)-harmine derivatives as potential multi-target anti-Alzheimer agents” (Frontiers in Chemistry, 2025).

These compounds were tested against hAChE (Homo sapiens, UniProt P22303) (assay: biochemical). Settings: not given.
Procedure: 50 μL of hAChE (0.02 unit/mL) or hBChE (0.02 unit/mL) were incubated with 10 μL of the compound in 96-well plates at 37°C for 6 min. Subsequently, 30 μL of a substrate solution containing acetylthiocholine iodide (ATCI) or butyrylthiocholine iodide (BTCI) at a concentration of 0.01 M was added, and the mixture was further incubated at 37°C for an additional duration of 12 min.

hAChE, sequence (P22303 32-614): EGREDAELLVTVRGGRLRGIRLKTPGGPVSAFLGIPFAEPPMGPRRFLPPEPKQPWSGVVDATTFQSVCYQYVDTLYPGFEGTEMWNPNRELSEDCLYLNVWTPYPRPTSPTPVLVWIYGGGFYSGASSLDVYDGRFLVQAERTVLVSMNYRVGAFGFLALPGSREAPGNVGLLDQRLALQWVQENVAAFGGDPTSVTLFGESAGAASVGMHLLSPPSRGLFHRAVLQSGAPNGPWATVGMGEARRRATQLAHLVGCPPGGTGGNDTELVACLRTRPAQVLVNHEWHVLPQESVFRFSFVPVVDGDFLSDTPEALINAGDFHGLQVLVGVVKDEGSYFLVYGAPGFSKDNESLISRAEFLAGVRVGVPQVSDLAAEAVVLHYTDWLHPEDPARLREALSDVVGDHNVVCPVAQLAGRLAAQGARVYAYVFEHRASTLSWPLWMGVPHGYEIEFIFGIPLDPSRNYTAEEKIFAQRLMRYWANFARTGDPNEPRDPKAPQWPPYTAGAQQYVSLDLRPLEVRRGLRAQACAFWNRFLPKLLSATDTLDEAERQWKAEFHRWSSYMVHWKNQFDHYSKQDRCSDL

Which “S.I. Selectivity index IC50(hBuChE)/IC50(hAChE)” value does the source give for `CCn1c2cc(OCCCCCCOc3ccc4c5ccnc(C)c5n(CC)c4c3)ccc2c2ccnc(C)c21` [Compound 6b, 1,6-bis ((9-ethyl-1-methyl-9H-pyrido [3,4-b]indol-7-yl)oxy)hexane] here?
Its value is 0.1.

For `CCCn1c2cc(OCCCCCCOc3ccc4c5ccnc(C)c5n(CCC)c4c3)ccc2c2ccnc(C)c21` [Compound 6c, 1,6-bis ((1-methyl-9-propyl-9H-pyrido [3,4-b]indol-7-yl)oxy)hexane], which “S.I. Selectivity index IC50(hBuChE)/IC50(hAChE)” value is on record?
The value was 12.1.

Which “S.I. Selectivity index IC50(hBuChE)/IC50(hAChE)” value does the source give for `CCn1c2cc(OCCCCCCCOc3ccc4c5ccnc(C)c5n(CC)c4c3)ccc2c2ccnc(C)c21` [Compound 7b, 1,7-bis ((9-ethyl-1-methyl-9H-pyrido [3,4-b]indol-7-yl)oxy)heptane] here?
Its value is over 2.6.

Which “S.I. Selectivity index IC50(hBuChE)/IC50(hAChE)” value does the source give for `CCCn1c2cc(OCCCCCCCOc3ccc4c5ccnc(C)c5n(CCC)c4c3)ccc2c2ccnc(C)c21` [Compound 7c, 1,7-bis ((1-methyl-9-propyl-9H-pyrido [3,4-b]indol-7-yl)oxy)heptane] here?
Its value is over 25.6.

Same assay, conditions: Mean ± SD from 3-5 assays; read-out: IC50 (nM) for cholinesterase hAChE

Which IC50 does the source give for `CCn1c2cc(OCCCCCCOc3ccc4c5ccnc(C)c5n(CC)c4c3)ccc2c2ccnc(C)c21` [Compound 6b, 1,6-bis ((9-ethyl-1-methyl-9H-pyrido [3,4-b]indol-7-yl)oxy)hexane] here?
Its IC50 is 652 ± 35.8 nM.

How did the IC50 turn out when `CCCn1c2cc(OCCCCCCOc3ccc4c5ccnc(C)c5n(CCC)c4c3)ccc2c2ccnc(C)c21` [Compound 6c, 1,6-bis ((1-methyl-9-propyl-9H-pyrido [3,4-b]indol-7-yl)oxy)hexane] was run?
Its IC50 is 82.1 ± 6.9 nM.

`CCn1c2cc(OCCCCCCCOc3ccc4c5ccnc(C)c5n(CC)c4c3)ccc2c2ccnc(C)c21` [Compound 7b, 1,7-bis ((9-ethyl-1-methyl-9H-pyrido [3,4-b]indol-7-yl)oxy)heptane] was tested. Which IC50 did it give?
The IC50 was 386 ± 26.8 nM.

With `CCCn1c2cc(OCCCCCCCOc3ccc4c5ccnc(C)c5n(CCC)c4c3)ccc2c2ccnc(C)c21` [Compound 7c, 1,7-bis ((1-methyl-9-propyl-9H-pyrido [3,4-b]indol-7-yl)oxy)heptane] as the compound, how does the IC50 read?
The IC50 was 39.2 ± 2.9 nM.

These compounds were tested against T1, recombinant hMAO-B (Homo sapiens, UniProt P27338) (assay: biochemical). Settings: compound at 1 μM; read-out: inhibition of hMAO-B in primary screening.
T1 construct: purchased Sigma-Aldrich
T1 sequence (P27338 1-520): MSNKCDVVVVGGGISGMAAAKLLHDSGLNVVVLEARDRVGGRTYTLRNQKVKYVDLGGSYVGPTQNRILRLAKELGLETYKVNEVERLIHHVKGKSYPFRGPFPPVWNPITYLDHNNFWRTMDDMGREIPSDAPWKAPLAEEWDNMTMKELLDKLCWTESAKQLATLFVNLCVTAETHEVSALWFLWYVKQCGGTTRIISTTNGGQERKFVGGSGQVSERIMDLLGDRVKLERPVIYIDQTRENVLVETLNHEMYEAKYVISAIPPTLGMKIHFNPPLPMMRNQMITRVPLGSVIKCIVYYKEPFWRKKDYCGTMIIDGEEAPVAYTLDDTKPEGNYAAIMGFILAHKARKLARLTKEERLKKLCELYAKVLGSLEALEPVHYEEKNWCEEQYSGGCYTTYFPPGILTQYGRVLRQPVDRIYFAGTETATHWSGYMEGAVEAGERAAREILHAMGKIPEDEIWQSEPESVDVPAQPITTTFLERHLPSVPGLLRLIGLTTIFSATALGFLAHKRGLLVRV
Procedure: (§1) Briefly, the compounds under investigation and the reference inhibitor were preincubated with kynuramine at 37°C for 10 min in 96-well microplates. […] The enzymatic reactions were terminated by adding 400 μL of 2 N NaOH and 1,000 μL of water, followed by centrifugation at 16,000 g for 10 min. Subsequently, the concentrations of MAOs that produced 4-hydroxyquinoline were determined by measuring the fluorescence of the supernatant using a Varioskan Flash Multimode Reader ([…]) with excitation and emission wavelengths set at 310 nm and 400 nm, respectively. The IC50 values were calculated from dose-response curves and expressed as the mean ± standard deviation. These values were determined based on at least three independent experiments, each performed in triplicate.

With `CCn1c2cc(OCCCCCCOc3ccc4c5ccnc(C)c5n(CC)c4c3)ccc2c2ccnc(C)c21` [Compound 6b, 1,6-bis ((9-ethyl-1-methyl-9H-pyrido [3,4-b]indol-7-yl)oxy)hexane] as the compound, how does the inhibition at 1 µM read?
Its inhibition at 1 µM is 41.2%.

For `CCCn1c2cc(OCCCCCCCOc3ccc4c5ccnc(C)c5n(CCC)c4c3)ccc2c2ccnc(C)c21` [Compound 7c, 1,7-bis ((1-methyl-9-propyl-9H-pyrido [3,4-b]indol-7-yl)oxy)heptane], which inhibition at 1 µM is on record?
The inhibition at 1 µM was 34.1%.

Same assay, conditions: mean ± SD; read-out: IC50 (nM) for monoamine oxidases hMAO-B

For `CCCn1c2cc(OCCCCCCOc3ccc4c5ccnc(C)c5n(CCC)c4c3)ccc2c2ccnc(C)c21` [Compound 6c, 1,6-bis ((1-methyl-9-propyl-9H-pyrido [3,4-b]indol-7-yl)oxy)hexane], which IC50 is on record?
Its IC50 is 529 ± 38.7 nM.

For `CCn1c2cc(OCCCCCCCOc3ccc4c5ccnc(C)c5n(CC)c4c3)ccc2c2ccnc(C)c21` [Compound 7b, 1,7-bis ((9-ethyl-1-methyl-9H-pyrido [3,4-b]indol-7-yl)oxy)heptane], which IC50 is on record?
Its IC50 is 79.8 ± 4.9 nM.

What follows are compounds tested against T2, recombinant hMAO-A (Homo sapiens, UniProt P21397) (assay: biochemical). Settings: not given.
T2 construct: purchased Sigma-Aldrich
T2 sequence (P21397 1-527): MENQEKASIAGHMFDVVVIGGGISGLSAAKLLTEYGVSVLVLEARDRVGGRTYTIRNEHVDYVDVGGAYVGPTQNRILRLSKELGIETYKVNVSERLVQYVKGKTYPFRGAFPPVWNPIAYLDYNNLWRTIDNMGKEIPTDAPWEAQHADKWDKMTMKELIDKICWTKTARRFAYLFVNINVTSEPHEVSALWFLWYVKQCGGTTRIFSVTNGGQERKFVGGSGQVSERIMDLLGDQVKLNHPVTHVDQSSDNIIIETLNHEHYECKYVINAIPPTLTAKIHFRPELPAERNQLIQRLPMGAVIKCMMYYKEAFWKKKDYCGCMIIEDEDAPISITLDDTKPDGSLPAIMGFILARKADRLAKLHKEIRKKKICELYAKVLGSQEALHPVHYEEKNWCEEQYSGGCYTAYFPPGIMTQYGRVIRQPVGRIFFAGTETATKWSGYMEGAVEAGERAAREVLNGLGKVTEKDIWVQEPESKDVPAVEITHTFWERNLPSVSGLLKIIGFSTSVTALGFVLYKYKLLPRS
Procedure: as §1

Which “S.I. Selectivity index IC50(hMAO-B)/IC50(hMAO-A)” value does the source give for `CCn1c2cc(OCCCCCCOc3ccc4c5ccnc(C)c5n(CC)c4c3)ccc2c2ccnc(C)c21` [Compound 6b, 1,6-bis ((9-ethyl-1-methyl-9H-pyrido [3,4-b]indol-7-yl)oxy)hexane] here?
The value was over 1.1.

`CCCn1c2cc(OCCCCCCOc3ccc4c5ccnc(C)c5n(CCC)c4c3)ccc2c2ccnc(C)c21` [Compound 6c, 1,6-bis ((1-methyl-9-propyl-9H-pyrido [3,4-b]indol-7-yl)oxy)hexane] was tested. Which “S.I. Selectivity index IC50(hMAO-B)/IC50(hMAO-A)” value did it give?
Its value is 25.2.

`CCn1c2cc(OCCCCCCCOc3ccc4c5ccnc(C)c5n(CC)c4c3)ccc2c2ccnc(C)c21` [Compound 7b, 1,7-bis ((9-ethyl-1-methyl-9H-pyrido [3,4-b]indol-7-yl)oxy)heptane] was tested. Which “S.I. Selectivity index IC50(hMAO-B)/IC50(hMAO-A)” value did it give?
Its value is 0.5.

Which “S.I. Selectivity index IC50(hMAO-B)/IC50(hMAO-A)” value does the source give for `CCCn1c2cc(OCCCCCCCOc3ccc4c5ccnc(C)c5n(CCC)c4c3)ccc2c2ccnc(C)c21` [Compound 7c, 1,7-bis ((1-methyl-9-propyl-9H-pyrido [3,4-b]indol-7-yl)oxy)heptane] here?
The value was over 111.1.

Same assay, conditions: mean ± SD; read-out: IC50 (nM) for monoamine oxidases hMAO-A

Which IC50 does the source give for `CCn1c2cc(OCCCCCCOc3ccc4c5ccnc(C)c5n(CC)c4c3)ccc2c2ccnc(C)c21` [Compound 6b, 1,6-bis ((9-ethyl-1-methyl-9H-pyrido [3,4-b]indol-7-yl)oxy)hexane] here?
Its IC50 is 893 ± 59.3 nM.

Which IC50 does the source give for `CCCn1c2cc(OCCCCCCOc3ccc4c5ccnc(C)c5n(CCC)c4c3)ccc2c2ccnc(C)c21` [Compound 6c, 1,6-bis ((1-methyl-9-propyl-9H-pyrido [3,4-b]indol-7-yl)oxy)hexane] here?
The IC50 was 21 ± 1.18 nM.

`CCn1c2cc(OCCCCCCCOc3ccc4c5ccnc(C)c5n(CC)c4c3)ccc2c2ccnc(C)c21` [Compound 7b, 1,7-bis ((9-ethyl-1-methyl-9H-pyrido [3,4-b]indol-7-yl)oxy)heptane] was tested. Which IC50 did it give?
Its IC50 is 150 ± 12.4 nM.

For `CCCn1c2cc(OCCCCCCCOc3ccc4c5ccnc(C)c5n(CCC)c4c3)ccc2c2ccnc(C)c21` [Compound 7c, 1,7-bis ((1-methyl-9-propyl-9H-pyrido [3,4-b]indol-7-yl)oxy)heptane], which IC50 is on record?
The IC50 was 9.1 ± 0.6 nM.

What follows are compounds tested against Aβ 1−42 (Homo sapiens, UniProt P05067) (assay: Thioflavin T fluorescence assay, Aβ 1−42 self-aggregation). Settings: Aβ 1-42 20 μM, 37°C, 24 h.
Aβ 1−42, sequence (P05067 672-713 limits assumed): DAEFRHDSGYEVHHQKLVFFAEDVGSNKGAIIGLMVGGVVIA
Assay type: biochemical
Procedure: The thioflavin T (Th-T) fluorescence assay was used to assess the inhibition of Aβ 1−42 self-aggregation. […] Subsequently, the reaction was terminated to a final volume of 200 μL using Th-T (10 μM) solution.

`CCCn1c2cc(OCCCCCCCOc3ccc4c5ccnc(C)c5n(CCC)c4c3)ccc2c2ccnc(C)c21` [Compound 7c, 1,7-bis ((1-methyl-9-propyl-9H-pyrido [3,4-b]indol-7-yl)oxy)heptane] was tested. Which IC50 did it give?
The IC50 was 13.3 ± 0.6 µM.

Same assay, conditions: compound at 20 μM

Which “inhibition percent ratio of self-induced Aβ 1-42 aggregation” value (“inhibition percent ratio” for short) does the source give for `CCn1c2cc(OCCCCCCOc3ccc4c5ccnc(C)c5n(CC)c4c3)ccc2c2ccnc(C)c21` [Compound 6b, 1,6-bis ((9-ethyl-1-methyl-9H-pyrido [3,4-b]indol-7-yl)oxy)hexane] here?
Its value is 40.2%.

With `CCCn1c2cc(OCCCCCCOc3ccc4c5ccnc(C)c5n(CCC)c4c3)ccc2c2ccnc(C)c21` [Compound 6c, 1,6-bis ((1-methyl-9-propyl-9H-pyrido [3,4-b]indol-7-yl)oxy)hexane] as the compound, how does the “inhibition percent ratio” value read?
The value was 35.8%.

With `CCn1c2cc(OCCCCCCCOc3ccc4c5ccnc(C)c5n(CC)c4c3)ccc2c2ccnc(C)c21` [Compound 7b, 1,7-bis ((9-ethyl-1-methyl-9H-pyrido [3,4-b]indol-7-yl)oxy)heptane] as the compound, how does the “inhibition percent ratio” value read?
The value was 29.6%.

The compounds below were run against hBuChE (Homo sapiens, UniProt P06276) (assay: Ellman's assay, hBuChE inhibition). Settings: Mean ± SD from 3-5 assays; read-out: IC50 (nM) for cholinesterase hBuChE.
hBuChE, sequence (P06276 29-602): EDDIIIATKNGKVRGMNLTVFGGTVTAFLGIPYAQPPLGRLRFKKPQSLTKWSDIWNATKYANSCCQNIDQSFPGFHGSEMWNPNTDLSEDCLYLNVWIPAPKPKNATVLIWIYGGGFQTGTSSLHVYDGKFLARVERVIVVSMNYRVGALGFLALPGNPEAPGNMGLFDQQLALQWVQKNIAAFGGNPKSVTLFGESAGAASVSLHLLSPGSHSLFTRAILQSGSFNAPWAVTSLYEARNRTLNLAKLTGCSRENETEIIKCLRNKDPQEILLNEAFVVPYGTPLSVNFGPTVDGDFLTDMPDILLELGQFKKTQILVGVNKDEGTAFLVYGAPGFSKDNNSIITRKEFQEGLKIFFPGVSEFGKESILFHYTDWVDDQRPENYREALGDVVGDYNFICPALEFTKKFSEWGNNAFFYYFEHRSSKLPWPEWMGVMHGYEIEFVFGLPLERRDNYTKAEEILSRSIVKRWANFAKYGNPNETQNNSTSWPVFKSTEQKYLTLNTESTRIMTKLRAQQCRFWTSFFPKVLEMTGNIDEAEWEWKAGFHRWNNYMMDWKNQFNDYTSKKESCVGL
Assay type: biochemical
Procedure: The Ellman’s assay was utilized to assess the inhibitory potential of novel bis(7)-harmine derivatives against hAChE and hBuChE. 50 μL of hAChE (0.02 unit/mL) or hBChE (0.02 unit/mL) were incubated with 10 μL of the compound in 96-well plates at 37°C for 6 min. Subsequently, 30 μL of a substrate solution containing acetylthiocholine iodide (ATCI) or butyrylthiocholine iodide (BTCI) at a concentration of 0.01 M was added, and the mixture was further incubated at 37°C for an additional duration of 12 min. Finally, the activity was measured by adding 150 μL of a solution containing 5,5′−dithiobis (2-nitrobenzoic acid) (DTNB) at a concentration of 0.01 M, followed by measuring absorbance at a wavelength of 415 nm using an Evolution 300 PC UV-Vis Spectrophotometer.

`CCn1c2cc(OCCCCCCOc3ccc4c5ccnc(C)c5n(CC)c4c3)ccc2c2ccnc(C)c21` [Compound 6b, 1,6-bis ((9-ethyl-1-methyl-9H-pyrido [3,4-b]indol-7-yl)oxy)hexane] was tested. Which IC50 did it give?
Its IC50 is 86.8 ± 5.3 nM.

How did the IC50 turn out when `CCCn1c2cc(OCCCCCCOc3ccc4c5ccnc(C)c5n(CCC)c4c3)ccc2c2ccnc(C)c21` [Compound 6c, 1,6-bis ((1-methyl-9-propyl-9H-pyrido [3,4-b]indol-7-yl)oxy)hexane] was run?
Its IC50 is 994 ± 73.4 nM.

Same assay, conditions: compound at 1 μM; read-out: inhibition of hBuChE in primary screening

How did the inhibition at 1 µM turn out when `CCn1c2cc(OCCCCCCCOc3ccc4c5ccnc(C)c5n(CC)c4c3)ccc2c2ccnc(C)c21` [Compound 7b, 1,7-bis ((9-ethyl-1-methyl-9H-pyrido [3,4-b]indol-7-yl)oxy)heptane] was run?
Its inhibition at 1 µM is 36.5%.

With `CCCn1c2cc(OCCCCCCCOc3ccc4c5ccnc(C)c5n(CCC)c4c3)ccc2c2ccnc(C)c21` [Compound 7c, 1,7-bis ((1-methyl-9-propyl-9H-pyrido [3,4-b]indol-7-yl)oxy)heptane] as the compound, how does the inhibition at 1 µM read?
Its inhibition at 1 µM is 44.8%.
